Biological target: T1, bPGM5 (Baltic herring PGM5) (Clupea harengus, UniProt A0A6P3VN15)
T1 construct: full length, 567 residues; codon-optimized, E. coli BL21(DE3), pNIC28-Bsa4, N-terminal TEV-cleavable His6-tag (kept in crystals, removed for DSF); monomer; Ser121 phosphorylated in crystal
Assay: X-ray crystal structure, […] Å
Assay type: binding
Conditions: active site; His6-tagged protein with phosphorylated Ser121, metal modelled as Ni2+; crystals soaked overnight with 5 mM glucose-1,6-bisphosphate, observed ligand is G1P; pH 6.5

T1 sequence (A0A6P3VN15 entry or part of it): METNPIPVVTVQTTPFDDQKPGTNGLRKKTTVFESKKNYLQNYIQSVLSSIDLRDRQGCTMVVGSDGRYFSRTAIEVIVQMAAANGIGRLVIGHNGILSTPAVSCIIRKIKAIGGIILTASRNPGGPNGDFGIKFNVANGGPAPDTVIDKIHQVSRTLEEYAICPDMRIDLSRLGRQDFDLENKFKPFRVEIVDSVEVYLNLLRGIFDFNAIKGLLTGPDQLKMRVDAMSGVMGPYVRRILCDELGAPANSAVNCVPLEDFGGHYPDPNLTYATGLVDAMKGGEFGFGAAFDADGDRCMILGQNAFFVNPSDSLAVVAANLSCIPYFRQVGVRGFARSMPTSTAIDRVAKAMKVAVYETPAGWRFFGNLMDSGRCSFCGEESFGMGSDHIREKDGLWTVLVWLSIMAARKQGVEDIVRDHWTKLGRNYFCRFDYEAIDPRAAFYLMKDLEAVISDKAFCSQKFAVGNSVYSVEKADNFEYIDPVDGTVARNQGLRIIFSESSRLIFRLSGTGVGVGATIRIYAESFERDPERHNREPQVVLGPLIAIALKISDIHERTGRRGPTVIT

Structure (SMILES): O=P(O)(O)O[C@H]1O[C@H](CO)[C@@H](O)[C@H](O)[C@H]1O [G1P, glucose-1-phosphate]
- X-ray crystal structure, 1.95 Å: the observed ligand is G1P instead of the G16P that was used in crystallization
